Where a name gives a salt, the structure may show the parent alone.

The target of this assay is T1, human PDE4B2 (Homo sapiens, UniProt Q07343).
T1 construct: FLAG; made in house; host or cells: COS-1 cells (plasmid amplified in E. coli)
T1 sequence (Q07343 1-564 isoform Q07343-2): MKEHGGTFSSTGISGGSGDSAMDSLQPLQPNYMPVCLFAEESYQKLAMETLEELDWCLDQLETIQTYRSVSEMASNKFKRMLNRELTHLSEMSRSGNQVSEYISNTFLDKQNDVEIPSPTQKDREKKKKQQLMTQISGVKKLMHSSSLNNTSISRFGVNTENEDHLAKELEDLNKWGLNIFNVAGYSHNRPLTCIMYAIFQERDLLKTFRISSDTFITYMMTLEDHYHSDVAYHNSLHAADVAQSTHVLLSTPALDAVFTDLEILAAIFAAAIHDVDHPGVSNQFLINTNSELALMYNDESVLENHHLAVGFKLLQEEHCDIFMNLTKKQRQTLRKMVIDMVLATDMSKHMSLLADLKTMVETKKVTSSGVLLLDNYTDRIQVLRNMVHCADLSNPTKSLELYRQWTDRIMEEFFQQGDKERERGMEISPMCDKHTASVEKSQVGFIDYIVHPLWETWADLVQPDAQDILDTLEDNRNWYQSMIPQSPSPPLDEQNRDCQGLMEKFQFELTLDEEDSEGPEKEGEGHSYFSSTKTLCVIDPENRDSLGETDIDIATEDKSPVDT
Nature of the assay: Human PDE4B activity inhibition test (SPA, [3H]-cAMP). Format: biochemical. The following applies: FLAG-tagged human PDE4B2 purified from COS-1 cells; 30 min at room temperature; read-out: IC50 (nM), human PDE4B inhibitory activity. The method, then: Test Method 1: Human PDE4B Inhibitory Activity
(1) Purification of Human PDE4B Enzyme
Plasmid DNA encoding FLAG-tagged human PDE4B2 was prepared and transfected into E. coli, and mass cultivation was performed. After extracting and purifying the plasmid DNA from the E. coli, the resultant was transfected into COS-1 cells and cultured. After the cells were homogenized, the expressed enzyme was purified using a FLAG peptide affinity column.
(2) Human PDE4B Activity Inhibition Test
1 μl/well of DMSO solution in which various concentrations of test compounds were dissolved and 74 μl/well of the purified enzyme diluted with a buffer were added to 96-well plates, and incubated at room temperature for 10 minutes. A buffer including 40 nM [^3H]-cAMP (Amersham, TRK559) and 4 μM cAMP were added at 25 μl/well and reacted for 30 minutes at room temperature. A suspension (18 mM ZnSO4, 5 mM IBMX, distilled water) of polylysin coated yttrium silicate SPA beads (Amersham, RPNQ0010) was added at 50 μl/well, and the reaction was stopped. After standing for 20 minutes at room temperature, the radioactivity was measured using a top count instrument and set as an index of enzyme activity. For evaluating the enzyme inhibitory activity of the test compound in each experiment, a value of IC50 was calculated with the radiation activity of the well of adding the vehicle (DMSO) and the enzyme as 0% inhibition and the radiation activity of the well of adding only the vehicle and not adding the enzyme as 100% inhibition.
As usually defined, the IC50 is the concentration that inhibits the measured activity by half. With `CO[C@]1(CO)CCN(c2c3c(c(C(N)=O)c4nc5ccccc5n24)CCC3)C[C@H]1F` (relative stereo) [Example 10], the IC50 came out at 48 nM. With `CO[C@@]1(CO)CCN(c2c3c(c(C(N)=O)c4nc5ccccc5n24)CC(C)(C)C3)C[C@@H]1F` (relative stereo) [Example 22, rel-11-[(3R,4S)-3-fluoro-4-(hydroxymethyl)-4-methoxypiperidin-1-yl]-2,2-dimethyl-2,3-dihydro-1H-cyclopenta[4,5]pyrido[1,2-a]benzimidazole-4-carboxamide] the figure was 11.8 nM; with `CC1(CO)CCN(c2c3c(c(C(N)=O)c4nc5ccccc5n24)CCC3)CC1` [Example 2], 13 nM; with `CC1(C)CCc2c(c(N3CCC(C)(CO)CC3)n3c(nc4ccccc43)c2C(N)=O)C1` [Example 4], 86 nM. Consider `N#CC1(CO)CCN(c2c3c(c(C(N)=O)c4nc5ccccc5n24)CCC3)CC1` [Example 5], for which the IC50 was 14 nM.

Consider `COC1(CO)CCN(c2c3c(c(C(N)=O)c4nc5ccccc5n24)CCC3)CC1` [Example 8], for which the IC50 stood at 8 nM. With `COC1(CO)CCN(c2c3c(c(C(N)=O)c4nc5ccccc5n24)CC(C)(C)C3)CC1` [Example 12] the figure was 2.7 nM; with `COC1(CO)CCN(c2c3c(c(C(N)=O)c4nc5ccccc5n24)C2CCC3C2)CC1` (centres unmarked) [Example 14], 3.3 nM.

For `COC1(CO)CCN(c2c3c(c(C(N)=O)c4nc5c(n24)CCCC5)CCC3)CC1` [Example 15], the IC50 worked out at 26 nM. With `COC1(CO)CCN(c2c3c(c(C(N)=O)c4nc5ccccc5n24)CCSC3)CC1` [Example 16], the IC50 came to 15 nM.

With `CC1(CN)CCN(c2c3c(c(C(N)=O)c4nc5ccccc5n24)CCC3)CC1` [Example 18, 11-[4-(aminomethyl)-4-methylpiperidin-1-yl]-2,3-dihydro-1H-cyclopenta[4,5]pyrido[1,2-a]benzimidazole-4-carboxamide dihydrochloride], the IC50 is 18 nM. `NC(=O)c1c2c(c(N3CCC4(CO)CC4C3)n3c1nc1ccccc13)CCC2` (centres unmarked) [Example 23, 11-[6-(hydroxymethyl)-3-azabicyclo[4.1.0]hept-3-yl]-2,3-dihydro-1H-cyclopenta[4,5]pyrido[1,2-a]benzimidazole-4-carboxamide hydrochloride]: the IC50 came to 42 nM.

Consider `NC(=O)c1c2c(c(N3CCC4(CC3)CNC4)n3c1nc1ccccc13)CCC2` [Example 25, 11-(2,7-diazaspiro[3.5]non-7-yl)-2,3-dihydro-1H-cyclopenta[4,5]pyrido[1,2-a]benzimidazole-4-carboxamide dihydrochloride], for which the IC50 was determined as 8.2 nM. For `NC(=O)c1c2c(c(N3CCC4(CCNC4)CC3)n3c1nc1ccccc13)CCC2` [Example 26], the IC50 was determined as 13 nM.
